Laboratory results published in US20180051221A1, “UNLEADED GASOLINE FORMULATIONS FOR PISTON ENGINES” (Swift Fuels, LLC, priority 2014, published 2018).
Read-outs that look alike come from different tables or passages of the source.

Experiments:
[1] = Octane enhancement by aromatic amines blended into aviation gasoline (compared to baseline avgas); conditions: for Octane @ 6%*: amine at 6% in aviation gasoline; for Octane @ 9%*: amine at 9% in aviation gasoline
[2] = Solubility / physical state remarks on aromatic amines as avgas components; format: physicochemical; conditions: remark on solubility above 6% or solid state at RT; b32 calls these solubility problems
rat = conditions: cited from earlier work
[3] = cited from earlier work; for OSHA Hazards: public MSDS / OSHA data
[4] = occupational exposure limit, estimated; cited from earlier work
[5] = within 10 days; cited from earlier work
[6] = oral, MSDS data from Sigma-Aldrich, et al.

Row | SMILES | Octane @ 6%* [1] | Octane @ 9%* [1] | other results
1 | Nc1cc(F)c(F)c(F)c1F [2,3,4,5-tetrafluorophenylamine] | 1.70 | 2.50 | Other [2]: solid@RT
2 | Nc1ccccc1Cl [2-chlorophenylamine] | 4.50 | 5.60 | 
3 | Cc1ccc(N)c(F)c1 [2-fluoro-4-metylphenylamine] | 4.00 | 5.10 | 
4 | Cc1ccc(F)c(N)c1 [2-fluoro-5-metylphenylamine] | 3.60 | 5.10 | 
5 | Nc1ccccc1F [2-fluorophenylamine] | 4.20 | 7.30 | 
6 | Cc1ccccc1N [2-methylphenylamine] | 1.70 | 2.10 | 
7 | Cc1ccc(N)cc1C [3,4-dimethylphenylamine] | 5.60 |  | 
8 | Cc1cc(C)cc(N)c1 [3,5-dimethylphenylamine] | 5.70 | 8.70 | 
9 | Nc1cccc(Cl)c1 [3-chlorophenylamine] | 3.60 |  | 
10 | CCc1cccc(N)c1 [3-ethylphenylamine] | 3.80 | 6.60 | 
11 | Cc1c(N)cccc1F [3-fluoro-2-metylphenylamine] | 1.30 | 2.70 | 
12 | Nc1cccc(F)c1 [3-fluorophenylamine] | 4.20 | 6.70 | 
13 | Cc1cccc(N)c1 [3-methylphenylamine] | 5.40 | 7.40 | LD50 (rat, oral) (rat; in vivo, po): 450 mg/kg
14 | CCc1ccc(N)cc1 [4-ethylphenylamine] | 3.80 | 6.30 | 
15 | Cc1cc(F)ccc1N [4-fluoro-2-metylphenylamine] | 1.60 | 2.10 | 
16 | Nc1ccc(F)cc1 [4-fluorophenylamine] | 4.20 | 7.50 | 
17 | Cc1ccc(N)cc1 [4-methylphenylamine] | 6.10 |  | 
18 | CC(C)(C)c1ccc(N)cc1 [4-t-butylphenylamine] | 4.20 | 6.60 | 
19 | Cc1ccc(F)cc1N [5-fluoro-2-metylphenylamine] | 1.60 | 2.10 | 
20 | c1ccccc1 [Benzene] |  |  | LD50 (rat, oral) (rat; in vivo, po): 2,990 mg/kg
21 | CC(C)c1ccc(N)cc1 [Cumidine, 4-isopropylaniline] | 4.40 | 7.20 | classification as mutagen or carcinogen ([3]; MSDS No. 818472, EMD Millipore): not classified as a mutagen or carcinogen; LD50 (rat, oral) (rat; oral, MSDS No. 818472, EMD Millipore): 757 mg/kg; LD50 (rat, oral) (rat; [6]): 757 mg/kg; TWA [4]: ~2 ppm; biodegradable [5]: 88%
22 | CCOC(C)(C)C [ETBE, ethyl tert-butyl ether] |  |  | OSHA Hazards [3]: Irritant; LD50 (rat, oral) (rat; [6]): 5,000 mg/kg
23 | Cc1cc(C)cc(C)c1 [Mesitylene] |  |  | LD50 (rat, oral) (rat; [6]): 5,000 mg/kg
24 | CCNc1ccccc1 [N-ethylphenylamine] | −2.50 |  | 
25 | CNc1ccc(F)cc1 [N-methyl-4-fluorophenylamine] | 2.50 | 2.60 | 
26 | CNc1ccccc1 [N-methylphenylamine] | 2.10 | 2.60 | 
27 | C[CH2][Pb]([CH2]C)([CH2]C)[CH2]C [TEL, Tetraethyl lead] |  |  | LD50 (rat, oral) (rat; [6]): 14 mg/kg
28 | Cc1ccccc1 [Toluene] |  |  | LD50 (rat, oral) (rat; [6]): 5,000 mg/kg
29 | Nc1ccccc1 [phenylamine] | 5.70 | 8.70 | OSHA Hazards ([3]; listed as aniline): irritant; LD50 (rat, oral) (rat; in vivo, po): 250 mg/kg
